This is an account of results in article PMC7238232, “Acamprosate Is a Substrate of the Human Organic Anion Transporter (OAT) 1 without OAT3 Inhibitory Properties: Implications for Renal Acamprosate Secretion and Drug–Drug Interactions” (Pharmaceutics, 2020).

Values joined by “and” are separate entries in the source; they are usually repeats but may differ in a detail not shown here. Identical values can stand only once. Like-named read-outs stand apart in the source and are kept apart here.

Data set [1] concerns human OAT1. The settings on record: cited from earlier work; for Km: read-out: Km of other OAT1 substrates.
Data set [2] has as its system human kidney slices. Also on record: method as in PMID 17255469. The settings on record: read-out: Km of PAH; cited from earlier work.
In data set [3] the test system is HEK293-Flp-In mock cells. Kind of data set: CellTiter-Glo cell viability assay, mock cells.
Data set [4] has as its system HEK293-Flp-In mock cells. Kind of data set: Control uptake studies in HEK293-Flp-In mock cells. The settings on record: for effect on uptake of [14C]-PAH in mock cells: 9.5 µM [14C]-PAH, 200 µM PAH, 300 µM or 0.02–1022 µM probenecid, acamprosate; for effect on uptake of [3H]-E3S in mock cells: 0.02 µM [3H]-E3S, 200 µM E3S, 300 µM or 0.2–1022 µM probenecid, 10,000 µM acamprosate, Lab. 2.

Data set [5] has as its system HEK293-Flp-In OAT1 cells. In words: CellTiter-Glo cell viability assay, OAT1 transfected cells. A general note: Cellular ATP, detected with luciferase, serves as a proxy for viable cell number.
In data set [6] the test system is HEK293-Flp-In OAT3 cells. Kind of data set: CellTiter-Glo cell viability assay, OAT3 transfected cells.
Data set [7] deals with T1, OAT3 (Homo sapiens, UniProt Q8TCC7).
T1 sequence (Q8TCC7 1-542): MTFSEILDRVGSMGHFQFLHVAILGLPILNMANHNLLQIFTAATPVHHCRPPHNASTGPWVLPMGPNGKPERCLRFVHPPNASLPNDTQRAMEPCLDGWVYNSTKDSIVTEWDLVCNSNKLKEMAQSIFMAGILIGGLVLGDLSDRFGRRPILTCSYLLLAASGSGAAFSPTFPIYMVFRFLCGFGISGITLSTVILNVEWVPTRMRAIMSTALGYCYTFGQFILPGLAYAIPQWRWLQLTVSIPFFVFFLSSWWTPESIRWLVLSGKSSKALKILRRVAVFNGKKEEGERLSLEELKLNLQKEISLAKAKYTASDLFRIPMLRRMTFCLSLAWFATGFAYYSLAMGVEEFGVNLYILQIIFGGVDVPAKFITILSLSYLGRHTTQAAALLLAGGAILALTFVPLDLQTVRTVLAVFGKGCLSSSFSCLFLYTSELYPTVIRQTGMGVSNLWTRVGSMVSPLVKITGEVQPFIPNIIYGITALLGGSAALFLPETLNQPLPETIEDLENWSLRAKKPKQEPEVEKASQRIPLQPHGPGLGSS
Kind of data set: [3H]-E3S uptake and its inhibition in HEK293-Flp-In OAT3 cells. Format: cell-based. The settings on record: 0.02 µM [3H]-E3S; 200 µM E3S, 300 µM probenecid, 1000 or 10,000 µM acamprosate; Lab. 2. Here is the method:
All uptake experiments were performed on 24- or 96-well plates. Before the experiment initiation, the cells were incubated with either 500 or 200 µL∙well^−1 prewarmed buffer for 10 min at 37 °C in a microplate incubator (VWR International AB, Stockholm, Sweden), without shaking. […] The experiment was stopped by adding 200 µL∙well^−1 of ice-cold buffer and subsequent rinse three times with the same amount of buffer. In Lab. 1 the sample analysis of the OAT1/OAT3/mock studies consisted in removing the rinsing buffer and lysing the cells with 70 µL 1M NaOH, following by incubation for 60 min at 37 °C and 100 rpm. A total of 50 µL of cell lysate from each well was transferred to 96-well Luma plates bottom coated with dry scintillant. Then, 2∙20 µL of each donor and three 50 µL blank samples were applied on the same plate. The dry plates were covered with transparent seals and analyzed using a TopCount NXT Microplate Scintillation and Luminescence Counter (Perkin Elmer, Waltham, MA, USA). The remaining 20 µL cell lysate was neutralized with 20 µL 1M HCl∙well^−1, samples were mixed thoroughly and the total protein content in all the wells was measured using a BCA protein assay kit, microplate method, and a Tecan Safire II fluorometer (Tecan Austria GmbH, Grödig, Austria). For the experiments in Lab. 2, the cells were lysed by adding 200 µL 0.1% Triton X-100 and incubated for 5 min at 37 °C and 100 rpm. […] The total protein content was measured by using a BCA protein assay kit and a FLUOStar Omega fluorescence microplate reader (BMG Labtech, Ortenberg, Germany). The protein assay for the OAT3 and mock cell lines was performed in four independent wells of each cell line, seeded and treated in the same manner as the cells used in the uptake assay. For all the OAT1, OAT3, and mock isotope uptake studies, the radiolabelled tracer accumulation (pmol) in each well was calculated by first determining the activity of the isotope (DPM∙pmol^−1) from the radioactivity (DPM) of the donor sample divided by the theoretical isotope concentration (pmol), then dividing the total radioactivity in the well (DPM) to the specific activity of the isotope (DPM∙pmol^−1).
A range of preincubation solutions was prepared at the same concentrations of acamprosate applied in the inhibition assays. Acamprosate was dissolved in HBSS buffered with 10 mM HEPES and the pH was adjusted to 7.40 ± 0.01. The preincubation solutions were prewarmed to 37 °C and applied to the corresponding cells after removing the cell growth medium. The preincubation was done for 3 h, at 37 °C, without shaking. After the preincubation, the solutions were removed, and the inhibition experiment was performed as described in the Section 2.6.
The obtained intracellular amounts (pmol) were normalized to the assay time (min) and cell surface area (cm^2) or protein amount (mg protein) to obtain a term hereafter referred to as uptake rate. […] Assuming competitive interaction, equilibrium dissociation constants, Ki, were calculated from the IC50 value for each substrate/inhibitor pair, at substrate Km, using the Cheng–Prusoff equation [24].

The conditions of data set [8]: probenecid, oral, cited from earlier work.
For data set [9], the system named is OAT. Also on record: method as in PMID 23085876. The settings on record: OAT mediated DDI by probenecid, compared to control; cited from earlier work.
The nature of data set [10]: Clinical pharmacokinetics in humans (literature). The settings on record: probenecid, oral, calculated from Cmax and fu.
Substrate in data set [11]: CC(=O)NCCCS(=O)(=O)O
Kind of data set: Acamprosate intracellular uptake and inhibition of uptake in HEK293-Flp-In OAT1 cells (LC/MS-MS). Format: cell-based, human. The settings on record: other: HEK293-Flp-In OAT1 cells, 10 min, pH 7.4, Lab. 1.

[12] abbreviates: 3 h, 1000 µM p-aminohippuric acid, 200 µM estrone-3-sulfate (Figure 8A).

The term Km denotes the concentration of substrate that gives half-maximal velocity. As for `O=S(=O)(O)CCSSCCS(=O)(=O)O` [dimesna], in [1], the Michaelis-Menten constant (Km) is 636 µM.

`Nc1nc(O)c2ncn(COC(CO)CO)c2n1` [ganciclovir]: in data set [1], the Michaelis constant (Km) is 896 µM.

Turning to `Nc1ccc(C(=O)NCC(=O)O)cc1` [p-aminohippuric acid], the Km in data set [2] is about 39 µM. Further, the “effect on cell viability” value is reported as “did not decrease cell viability” in data set [3] (setting [12]); “did not decrease cell viability” in data set [5] (3 h, 1000 µM p-aminohippuric acid, 200 µM estrone-3-sulfate (Figure 8B)); “did not decrease cell viability” in [6] (setting [12]). Besides, the “effect on uptake of [14C]-PAH in mock cells” value in data set [4] (Lab. 1) is reported as “no effect”. Also, the “saturability of dose-dependent substrate uptake in mock cells” value in data set [4] (same substrate concentrations as in transfected cells, acamprosate 0.33–3300 µM) was “not saturable”.

For orientation: Cmax means the maximum level reached in the sampled fluid or tissue. In the case of `CCCN(CCC)S(=O)(=O)c1ccc(C(=O)O)cc1` [probenecid], the “effect on uptake of [3H]-E3S in OAT3 expressing cells” value in data set [7] is “significantly decreased”. For the same molecule, the Cmax in [8] (500 mg) is 124 ± 30 µM; in data set [8] (1000 mg), 244 ± 94 µM; in data set [8] (2000 mg) it was 521 ± 166 µM. Further, the “fu, fraction unbound in plasma” value was 0.07 [53] in data set [8] (500 mg), 0.11 [53] in data set [8] (1000 mg) and 0.17 [53] in [8] (2000 mg). In data set [9], the “change in AUC of other inhibited drugs” value is 1.1–2.4 fold. In data set [9], the “change in CLR of other inhibited drugs” value is listed as 0.3–0.7 fold. Besides, the “Cmax,u” value is reported as 8.66 ± 2.09 µM in [10] (500 mg), 26.83 ± 10.37 µM in [10] (1000 mg) and 88.53 ± 28.24 µM in data set [10] (2000 mg). Besides, the “effect on uptake of [3H]-E3S in mock cells” value in [4] is listed as “no inhibition”; in [4] (listed as Probenecid), “no inhibitory effect”. The “effect on uptake of [14C]-PAH in mock cells” value in data set [4] (Lab. 1) is listed as “no effect”; in [4] (Lab. 1, listed as Probenecid), “no inhibitory effect”. In addition, in data set [4] (200 µM acamprosate, 0.02–1022 µM probenecid, Lab. 1), the “effect on acamprosate uptake in mock cells” value was “no inhibitory effect”.

For `Nc1nc2c(ncn2COCCO)c(=O)[nH]1` [acyclovir], the Michaelis constant (Km) in [1] is 342 µM.

As for `CN(Cc1cnc2nc(N)nc(N)c2n1)c1ccc(C(=O)N[C@@H](CCC(=O)O)C(=O)O)cc1` [methotrexate], the Michaelis-Menten constant (Km) in data set [1] is 554 to 724 µM.

On to `CCCCCCCCCCCCOS(=O)(=O)[O-].[Na+]` [SDS, sodium dodecyl sulfate], for which the “decrease in cell viability” value in data set [3] (0.5% SDS, 3 h incubation) is listed as “more than 95%”; in data set [5] (0.5% SDS, 3 h incubation), “approximately 50%”; in data set [6] (0.5% SDS, 3 h incubation), “more than 95%”.

For orientation: IC50 means the concentration that gives 50% inhibition. `CC(=O)Nc1ccc(O)cc1` [acetaminophen]: the half-inhibitory concentration (IC50) in data set [1] (read-out: IC50 of other drug substances inhibiting OAT1) was 639 µM.

B1: OAT1 (Homo sapiens) (protein)
chain: MAFNDLLQQVGGVGRFQQIQVTLVVLPLLLMASHNTLQNFTAAIPTHHCRPPADANLSKNGGLEVWLPRDRQGQPESCLRFTSPQWGLPFLNGTEANGTGATEPCTDGWIYDNSTFPSTIVTEWDLVCSHRALRQLAQSLYMVGVLLGAMVFGYLADRLGRRKVLILNYLQTAVSGTCAAFAPNFPIYCAFRLLSGMALAGISLNCMTLNVEWMPIHTRACVGTLIGYVYSLGQFLLAGVAYAVPHWRHLQLLVSAPFFAFFIYSWFFIESARWHSSSGRLDLTLRALQRVARINGKREEGAKLSMEVLRASLQKELTMGKGQASAMELLRCPTLRHLFLCLSMLWFATSFAYYGLVMDLQGFGVSIYLIQVIFGAVDLPAKLVGFLVINSLGRRPAQMAALLLAGICILLNGVIPQDQSIVRTSLAVLGKGCLAASFNCIFLYTGELYPTMIRQTGMGMGSTMARVGSIVSPLVSMTAELYPSMPLFIYGAVPVAASAVTVLLPETLGQPLPDTVQDLESRWAPTQKEAGIYPRKGKQTRQQQEHQKYMVPLQASAQEKNGL
notes: expressed in transfected cells; host or cells: HEK293-Flp-In
On to B1, for which, in [11], the Michaelis constant (Km) was 700 µM and 698 ± 192 µM.
